Reference: patent publication US8629168B2, “Benzoxazoles and oxazolopyridines being useful as janus kinases inhibitors” (priority 2006, dated 2014)

target: T1, GST-JAK2(808-1132) (Homo sapiens, UniProt O60674); experiment: EPK JAK/TYK-kinase family profiling assay (Caliper mobility shift), JAK2; type: biochemical; settings: Caliper mobility shift assay of Example 187, 20 μM ATP, read-out: IC50 with Test in present Example
T1 construct: GST-JAK2(808-1132) is purchased from Invitrogen; purchased Invitrogen (Carlsbad, USA) #4288
T1 sequence (O60674 808-1132): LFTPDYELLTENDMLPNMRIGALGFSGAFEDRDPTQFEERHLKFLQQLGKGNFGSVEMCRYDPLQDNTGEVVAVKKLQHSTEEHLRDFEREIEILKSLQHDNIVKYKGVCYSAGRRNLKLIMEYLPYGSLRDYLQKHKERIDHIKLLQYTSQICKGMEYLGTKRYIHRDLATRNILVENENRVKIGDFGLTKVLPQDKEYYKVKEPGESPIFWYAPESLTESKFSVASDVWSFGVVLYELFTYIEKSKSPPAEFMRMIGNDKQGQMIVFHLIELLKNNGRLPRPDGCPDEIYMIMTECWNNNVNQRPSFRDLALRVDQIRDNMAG
From the text: All four kinases of the JAK/TYK-kinase family are used as purified recombinant GST-fusion proteins, containing the active kinase domains. GST-JAK1(866-1154), GST-JAK3(811-1124), and GST-TYK2(888-1187) are expressed and purified by affinity chromatography. GST-JAK2(808-1132) is purchased from Invitrogen (Carlsbad, USA, #4288).
The kinase assays are based on the Caliper mobility shift assay using the LabChip 3000 systems. This technology is similar to capillary electrophoresis and uses charge driven separation of substrate and product in a microfluidic chip.
All kinase reactions are performed in 384 well microtiter plates in a total reaction volume of 18 μl. The assay plates are prepared with 0.1 μl per well of test compound in the appropriate test concentration, as described under the section “preparation of compound dilutions”. The reactions are started by combining 9 μl of substrate mix (consisting of peptide and ATP) with 9 μl of kinase dilution. The reactions are incubated for 60 minutes at 30° C. and stopped by adding 70 μl of stop buffer (100 mM Hepes, 5% DMSO, 0.1% Coating reagent, 10 mM EDTA, 0.015% Brij 35).
Fluorescently labeled synthetic peptides are used as substrates in all reactions. […] Specific assay conditions are described in Table 1:
The terminated reactions are transferred to a Caliper LabChip 3000 reader (Caliper Life Sciences, Mountain View, Calif., USA) and the turnover of each reaction is measured by determining the substrate/product ratio.
Test compounds are dissolved in DMSO (10 mM) and transferred into 1.4 mL flat bottom or V-shaped Matrix tubes carrying a unique 2D matrix chip by individual compound hubs. The numbers of these chips are distinctively linked to the individual compound identification numbers. The stock solutions are stored at −20° C. if not used immediately. For the test procedure the vials are defrosted and identified by a scanner whereby a working sheet is generated that guides the subsequent working steps.
Compound dilutions are made in 96 well plates. This format enabled the assay of maximally 40 individual test compounds at 8 concentrations (single points) including 4 reference compounds. The dilution protocol includes the production of pre-dilution plates, master plates and assay plates:
Pre-dilution plates: 96 polypropylene well plates are used as pre-dilution plates. A total of 4 pre-dilution plates are prepared including 10 test compounds each on the plate positions A1-A10, one standard compound at A11 and one DMSO control at A12. All dilution steps are done on a Hamilton STAR robot (Hamilton, Co., Reno, Nev., USA).
Master plates: 100 μL of individual compound dilutions including standard compound and controls of the 4 “pre-dilution plates” are transferred into a 384 “master plate” including the following concentrations 1,820, […], 182, 54.6, 18.2, 5.46, 1.82 and 0.546 μM, respectively in 90% of DMSO.
Assay plates: Identical assay plates are then prepared by pipetting 100 nL each of compound dilutions of the master plates into 384-well “assay plates”. In the following the compounds are mixed with 9 μL of assays components plus 9 μL enzyme corresponding to a 1:181 dilution steps enabling the final concentration of 10, 3.0, 1.0, 0.3, 0.1, 0.03, 0.01 and 0.003 μM, respectively. The preparation of the master plates are handled by the Matrix PlateMate Plus robot (Thermo Fisher Scientific, Handforth, Cheshire, United Kingdom) and replication of assay plates by the HummingBird robot (Genomic Solutions, Inc., Ann Arbor, Mich., USA).

SMILES | IC50 [nM]
Cc1cc(Nc2nc3cccc(-c4ccc(CN5CCS(=O)(=O)CC5)cc4)c3o2)ccc1C(=O)N(C)C [Example 79, 4-{7-[4-(1,1-Dioxo-1lambda*6*-thiomorpholin-4-ylmethyl)-phenyl]-benzooxazol-2-ylamino}-2,N,N-trimethyl-benzamide] | < 3
O=C1CCCN1c1ccc(Nc2nc3cccc(-c4cc(F)c(CN5CCOCC5)c(F)c4)c3o2)cc1 [Example 126, 1-{4-[7-(3,5-Difluoro-4-morpholin-4-ylmethyl-phenyl)-benzooxazol-2-ylamino]-phenyl}-pyrrolidin-2-one] | 165
CCN1CCN(Cc2ccc(Nc3nc4cccc(-c5ccc(C(=O)N6CCOCC6)c(F)c5)c4o3)cc2C)CC1 [Example 119, (4-{2-[4-(4-Ethyl-piperazin-1-ylmethyl)-3-methyl-phenylamino]-benzooxazol-7-yl}-2-fluoro-phenyl)-morpholin-4-yl-methanone] | 19.5
O=C1CCCN1c1ccc(Nc2nc3cccc(-c4cc(F)c(CN5CCS(=O)(=O)CC5)c(F)c4)c3o2)cc1 [Example 125, 1-(4-{7-[4-(1,1-Dioxo-1lambda*6*-thiomorpholin-4-ylmethyl)-3,5-difluoro-phenyl]-benzooxazol-2-ylamino}-phenyl)-pyrrolidin-2-one] | 70.5
Cc1cc(Nc2nc3cccc(-c4ccc(C(=O)N5CCOCC5)c(F)c4)c3o2)ccc1N1CCN(C2CC2)CC1 [Example 156, (4-{2-[4-(4-Cyclopropyl-piperazin-1-yl)-3-methyl-phenylamino]-benzooxazol-7-yl}-2-fluoro-phenyl)-morpholin-4-yl-methanone] | 20.5
Cc1cc(Nc2nc3cccc(-c4cc(F)c(CN5CCOCC5)c(F)c4)c3o2)ccc1C(=O)N1CCCC1 [Example 99, {4-[7-(3,5-Difluoro-4-morpholin-4-ylmethyl-phenyl)-benzooxazol-2-ylamino]-2-methyl-phenyl}-pyrrolidin-1-yl-methanone] | 19.2
Cc1cc(Nc2nc3cccc(-c4ccc(C(=O)N5CCOCC5)c(F)c4)c3o2)ccc1CN1CCOCC1 [Example 131, {2-Fluoro-4-[2-(3-methyl-4-morpholin-4-ylmethyl-phenylamino)-benzooxazol-7-yl]-phenyl}-morpholin-4-yl-methanone] | 19.5
CCN(CC)C(=O)c1ccc(Nc2nc3cccc(-c4ccc(CC(=O)N5CCS(=O)(=O)CC5)cc4)c3o2)cc1OC [Example 123, 4-(7-{4-[2-(1,1-Dioxo-1lambda*6*-thiomorpholin-4-yl)-2-oxo-ethyl]-phenyl}-benzooxazol-2-ylamino)-N,N-diethyl-2-methoxy-benzamide] | 5.4
CNC(=O)c1ccc(Nc2nc3cccc(-c4cc(F)c(CN5CCOCC5)c(F)c4)c3o2)cc1C [Example 120, 4-[7-(3,5-Difluoro-4-morpholin-4-ylmethyl-phenyl)-benzooxazol-2-ylamino]-2,N-dimethyl-benzamide] | 39
CCN1CCN(C(=O)c2ccc(Nc3nc4cccc(-c5cc(F)c(CN6CCOCC6)c(F)c5)c4o3)cc2C)CC1 [Example 104, {4-[7-(3,5-Difluoro-4-morpholin-4-ylmethyl-phenyl)-benzooxazol-2-ylamino]-2-methyl-phenyl}-(4-ethyl-piperazin-1-yl)-methanone] | 15
CS(=O)(=O)Nc1cccc(Nc2nc3cccc(-c4ccc(C(=O)N5CCOCC5)cc4)c3o2)c1 [Example 148, N-(3-{7-[4-(Morpholine-4-carbonyl)-phenyl]-benzooxazol-2-ylamino}-phenyl)-methanesulfonamide] | 50
COCCNC(=O)c1ccc(Nc2nc3cccc(-c4ccc(C(=O)N5CCOCC5)cc4)c3o2)cc1 [Example 145, N-(2-Methoxy-ethyl)-4-{7-[4-(morpholine-4-carbonyl)-phenyl]-benzooxazol-2-ylamino}-benzamide] | 55
Cc1cc(Nc2nc3cccc(-c4cc(F)c(CN5CCOCC5)c(F)c4)c3o2)ccc1N1CCN(C2CC2)CC1 [Example 160, [4-(4-Cyclopropyl-piperazin-1-yl)-3-methyl-phenyl]-[7-(3,5-difluoro-4-morpholin-4-ylmethyl-phenyl)-benzooxazol-2-yl]-amine] | 18
Cc1cc(Nc2nc3ccnc(-c4cc(F)c(CN5CCS(=O)(=O)CC5)c(F)c4)c3o2)ccc1C(=O)N(C)C [Example 168, 4-{4-[4-(1,1-Dioxo-1lambda*6*-thiomorpholin-4-ylmethyl)-3,5-difluoro-phenyl]-oxazolo[5,4-c]pyridin-2-ylamino}-2,N,N-trimethyl-benzamide] | 130
Cc1cc(Nc2nc3cccc(-c4cc(F)c(CN5CCOCC5)c(F)c4)c3o2)ccc1N1CCN(CCC(F)(F)F)CC1 [Example 121] | 210
Cc1cc(Nc2nc3cccc(-c4cc(F)c(CN5CCS(=O)(=O)CC5)c(F)c4)c3o2)ccc1C(=O)N(C)C [Example 65, 4-{7-[4-(1,1-Dioxo-thiomorpholin-4-ylmethyl)-3,5-difluoro-phenyl]-benzooxazol-2-ylamino}-2,N,N-trimethyl-benzamide] | 8.25
Cc1cc(Nc2nc3cccc(-c4cc(F)c(CN5CCS(=O)(=O)CC5)c(F)c4)c3o2)ccc1C(=O)N1CCCC1 [Example 96, (4-{7-[4-(1,1-Dioxo-1lambda*6*-thiomorpholin-4-ylmethyl)-3,5-difluoro-phenyl]-benzooxazol-2-ylamino}-2-methyl-phenyl)-pyrrolidin-1-yl-methanone] | 4.35
Cc1cc(Nc2nc3cccc(-c4ccc(C(=O)N5CCOCC5)cc4)c3o2)ccc1C(=O)N(C)C [Example 69, 2,N,N-Trimethyl-4-{7-[4-(morpholine-4-carbonyl)-phenyl]-benzooxazol-2-ylamino}-benzamide] | 7.9
COc1cc(Nc2nc3cccc(-c4ccc(CO)cc4)c3o2)cc(OC)c1OC [Example 143, {4-[2-(3,4,5-Trimethoxy-phenylamino)-benzooxazol-7-yl]-phenyl}-methanol] | 16.5
COc1cc(Nc2nc3cccc(-c4ccc(CN5CCN(C)CC5)cc4)c3o2)cc(OC)c1OC [Example 137] | 160
Cc1cc(-c2cccc3nc(Nc4ccc(N5CCN(C)CC5)cc4)oc23)ccc1C(=O)N1CCOCC1 [Example 82, (2-Methyl-4-{2-[4-(4-methyl-piperazin-1-yl)-phenylamino]-benzooxazol-7-yl}-phenyl)-morpholin-4-yl-methanone] | 4.8
Cc1cc(Nc2nc3cccc(-c4ccc(CC(=O)N5CCS(=O)(=O)CC5)c(F)c4)c3o2)ccc1C(=O)N(C)C [Example 83, 4-(7-{4-[2-(1,1-Dioxo-1lambda*6*-thiomorpholin-4-yl)-2-oxo-ethyl]-3-fluoro-phenyl}-benzooxazol-2-ylamino)-2,N,N-trimethyl-benzamide] | < 3
CN1CCN(c2ccc(Nc3nc4cccc(-c5ccc(CC(=O)N6CCOCC6)cc5)c4o3)cc2)CC1 [Example 74, 2-(4-{2-[4-(4-Methyl-piperazin-1-yl)-phenylamino]-benzooxazol-7-yl}-phenyl)-1-morpholin-4-yl-ethanone] | 5
CS(=O)(=O)c1ccc(Nc2nc3cccc(-c4ccc(CC(=O)N5CCOCC5)cc4)c3o2)cc1 [Example 124, 2-{4-[2-(4-Methanesulfonyl-phenylamino)-benzooxazol-7-yl]-phenyl}-1-morpholin-4-yl-ethanone] | 5.2
Cc1cc(Nc2nc3cccc(-c4cc(F)c(CN5CCS(=O)(=O)CC5)c(F)c4)c3o2)ccc1N1CCN(C2CC2)CC1 [Example 154, [4-(4-Cyclopropyl-piperazin-1-yl)-3-methyl-phenyl]-{7-[4-(1,1-dioxo-1lambda*6*-thiomorpholin-4-ylmethyl)-3,5-difluoro-phenyl]-benzooxazol-2-yl}-amine] | 3.3
Cc1cc(-c2cccc3nc(Nc4cccc(N5CCN(C)CC5)c4)oc23)ccc1C(=O)N1CCOCC1 [Example 129, (2-Methyl-4-{2-[3-(4-methyl-piperazin-1-yl)-phenylamino]-benzooxazol-7-yl}-phenyl)-morpholin-4-yl-methanone] | 45
